Series [1] relates to rats fed with methionine-choline-deficient diet (NASH-like lesion in the liver). The format is in vivo. To be noted: MCD diet 20 weeks, compared to the control group; for plasma AST / plasma ALT: oral once a day; for plasma AST: EPA-E 1000 mg/kg, acetylsalicylic acid 20 mg/kg; for plasma ALT: EPA-E 1000, metformin hydrochloride 40, acetylsalicylic acid 20, simvastatin 5, valsartan 20 mg/kg. On the procedure: Pharmacological action of EPA-E and/or metformin hydrochloride, acetylsalicylic acid, simvastatin, or valsartan on liver disorder and fibrosis is confirmed by using rats that have been fed with methionine-choline-deficient diet (hereinafter referred to as “MCD diet”) known to develop a NASH-like lesion in the liver.
7 week old male Wister rats are allowed to freely take normal diet (F-1, Funabashi Farm) or MCD diet (Dyets, Inc.) for 20 weeks under 12 hour light-dark cycles at 23° C. […] The administration is conducted orally once a day. The normal group and the control group are orally administered with 5% aqueous solution of gum arabic once a day. After 20 weeks, blood is collected for biochemical tests of the plasma, and pathological tests of the liver are also conducted.

Series [2] concerns SD rat fed with high-fat high-sucrose diet. Nature of the series: Effectiveness in high fat diet-fed rat. To be noted: HF diet 4 weeks. It is filed as in vivo. How it is done:
4 week old male SD rat is allowed to freely take normal diet (F-1, Funabashi Farm) or high-fat high-sucrose diet (TD88137, Harlan Teklad, hereinafter referred to as “HF diet”) for 4 weeks under 12 hour light-dark cycles at 23° C. […] The administration is conducted orally once a day. The normal group and the control group are orally administered with 5% aqueous solution of gum arabic once a day. After 4 weeks, blood is collected for determining neutrophil count and conduct biochemical tests of the plasma.

A further series has as its system NASH patients. Nature of the series: Administration to patients with the definitive diagnosis of NASH for one year. The format is in vivo, human. On the procedure:
Patients with the definitive diagnosis of NASH are divided into 8 groups (each group consisting of 15 patients). EPA-E group is administered with Epadel S (Registered Trademark) 900 (containing 900 mg of EPA-E) twice a day. […] Administration of the Melbin (Registered Trademark) tablet is started from once a day, the dose is adequately adjusted depending on the conditions of the patient, and after 5 weeks from the start of the administration, the dose may be increased to twice a day, and after 9 weeks from the start of the administration, the dose may be increased to 3 times a day. The dose is adequately adjusted depending on the conditions of the patient. […] Administration of the Bayaspirin (Registered Trademark) tablet is started from twice a day at 10 tablet in total, and after 5 weeks from the start of the administration, the dose is reduced to once a day at 1 tablet in total. The dose is adequately adjusted depending on the conditions of the patient. […] Candesartan group is administered with Blopress (Registered Trademark) tablet 2 (containing 2 mg of candesartan cilexetil), and candesartan combination group is administered with Blopress (Registered Trademark) tablet 2 and Epadel S (Registered Trademark) 900 twice a day. Administration of the Mevalotin (Registered Trademark) tablet 5 and Blopress (Registered Trademark) tablet 2 is started from 1 tablet once a day, and after 5 weeks from the start of the administration, the dose is increased to twice a day at 2 tablets in total, and after 9 weeks from the start of the administration, the dose is further increased to twice a day at 4 tablets in total. The dose is adequately adjusted depending on the conditions of the patient. Criteria, monitoring, histological tests, statistical analysis of the patients are conducted according to the methods described in Am. J. Gastroenterol. 2001; 96: 2711-2717. Measurement of blood neutrophil count and HOMA-IR, blood biochemical tests such as ALT and AST are occasionally conducted during the administration period of one year, and liver biopsy is conducted after completing the administration for histological evaluation.

A further series has as its system NASH patient. The note with it: cited from earlier work.
The subject of series [3] is db/db mouse fed with MCD diet (NASH-like lesion in the liver). Nature of the series: Effectiveness in methionine-choline deficient diet diabetes model mouse. The format is in vivo. The note with it: MCD diet 2 weeks, compared to the control group; for plasma ALT / plasma FFA amount: oral once a day, EPA-E 1000 mg/kg, metformin hydrochloride 80 mg/kg. On the procedure: Pharmacological action of EPA-E and/or metformin hydrochloride or olmesartan medoxomil for liver disorder and fibrosis is confirmed by using diabetes model rats that have been fed with MCD diet known to induce a NASH-like lesion in the liver.
7 week old male db/db mouse (Charles River Japan) is allowed to freely take normal diet (F-1, Funabashi Farm) or MCD diet (Dyets, Inc.) for 2 weeks under 12 hour light-dark cycles at 23° C. […] The administration is conducted orally once a day. The normal group and the control group are orally administered with 5% aqueous solution of gum arabic once a day. After 2 weeks, HOMA-IR is measured and blood is collected for biochemical test of the plasma.

Setting [4] is: EPA-E 1000 mg/kg oral once a day.
The mark [5] stands for this setting: oral once a day, compared to the control group, EPA-E 1000 mg/kg, atorvastatin calcium hydrate 10 mg/kg.
Setting [6] is: administration period of one year, EPA-E group (Epadel S 900 twice a day) compared to the measurements before the treatment.
The mark [7] stands for this setting: one year, Epadel S 900 (900 mg EPA-E) twice a day, compared to the measurements before the treatment.
[8] abbreviates: NASH patient also suffering from hypertension, oral 50 mg/day for 48 weeks, Non-Patent Literature 9.
Where [9] appears, read: NASH patient, oral 1500 mg/day for 4 months, Non-Patent Literature 4.

Each structure is given as a SMILES string. Counter-ions that a name gives are not always drawn.

With `CC/C=C\C/C=C\C/C=C\C/C=C\C/C=C\CCCC(=O)OCC` [EPA-E, ethyl icosapentate], in series [1] (setting [4]), the liver hydroxyproline content result is reported as “suppressed increase”, the “plasma TIMP-1 content” value is on record as “suppressed increase”, the plasma albumin result is listed as “suppressed increase” and the plasma choline esterase entry is given as “suppressed increase”. Moreover, in series [1] (setting [4]), the plasma hyaluronic acid result was “suppressed increase”, the plasma total bilirubin result is recorded as “suppressed increase”, the plasma total protein result is reported as “suppressed increase” and the “plasma type Iv collagen” value is “suppressed increase”. Also, in series [1], the “plasma AST” value was “suppressed increase” and the “plasma ALT” value is given as “suppressed increase”. Also, the “fibrosis area of liver” value in series [1] (Masson's trichrome stain, EPA-E 1000 mg/kg oral once a day) was “suppressed increase”. For the same molecule, in series [2] (setting [5]), the IL-6 entry is “suppressed increase”, the TNFα result is on record as “suppressed increase”, the ferritin entry is listed as “suppressed increase” and the “high sensitivity CPR” value is listed as “suppressed increase”. Further, in series [2] (setting [5]), the neutrophil count result was “suppressed increase”, the “plasma ALT” value is given as “suppressed increase”, the “plasma AST” value was “suppressed increase” and the thioredoxin entry is given as “suppressed increase”. The “type IV collagen” value in series [2] (setting [5]) is listed as “suppressed increase”. Moreover, in the series on NASH patients (setting [6]), the AST result is “decrease”, the HOMA-IR entry is given as “improved”, the IL-6 result is recorded as “decrease” and the TNFα result is “decrease”. Also, in the series with NASH patients (setting [6]), the adiponectin entry is recorded as “increases”, the ferritin result is given as “decrease”, the fibrosis marker entry is reported as “decrease” and the “high sensitivity CPR” value is listed as “decrease”. For the same molecule, in the series on NASH patients (setting [6]), the thioredoxin entry is given as “decrease”. Besides, the “pathological test image of the liver tissue, overall rating of fat accumulation grade, inflammation grade and fibrosis stage by Brunt method” value in the series on NASH patients (liver biopsy after one year, EPA-E group compared to the condition before the administration) is given as “improves”. Also, in the series with NASH patients (setting [7]), the AZT entry was “decrease” and the blood neutrophil count entry is reported as “decrease”. In addition, the “NASH (AST or ALT enzyme, inflammatory cytokine or oxidative stress marker, liver biopsy)” value in the series on NASH patient (2700 mg/day of high purity EPA-E for 12 months, Tanaka et al., Non-Patent Literature 3) is on record as “amelioration of NASH was demonstrated”. In addition, in series [3] (setting [4]), the TNFα entry is “suppressed increase”, the “plasma AST” value is “suppressed increase”, the “plasma TIMP-1” value is listed as “suppressed increase” and the plasma adiponectin amount result is reported as “suppressed decrease”. In series [3] (setting [4]), the plasma hyaluronic acid result was “suppressed increase” and the “plasma type IV collagen” value is reported as “suppressed increase”. In series [3], the “plasma ALT” value is given as “suppressed increase” and the “plasma FFA amount” value is listed as “suppressed increase”.

Take `CC(=O)Oc1ccccc1C(=O)O` [acetylsalicylic acid]: the “effects on plasma and liver parameters like those of the EPA-E group” value in series [1] (acetylsalicylic acid 20 mg/kg oral once a day) was “does not exhibit effects like those of the EPA-E group”. In addition, in series [1], the “plasma AST” value is given as “exacerbated” and the “plasma ALT” value is listed as “exacerbated”. The “improvement of the parameters over the control group” value in series [2] (acetylsalicylic acid 10 mg/kg oral once a day) was “does not exhibit significant improvement”.

`CC(C)c1c(C(=O)Nc2ccccc2)c(-c2ccccc2)c(-c2ccc(F)cc2)n1CC[C@@H](O)C[C@@H](O)CC(=O)O` [atorvastatin, atorvastatin calcium hydrate]: in series [2] (setting [5]), the IL-6 result is on record as “suppressed increase”, the TNFα result is on record as “suppressed increase”, the ferritin entry is “suppressed increase” and the “high sensitivity CPR” value is on record as “suppressed increase”. In series [2] (setting [5]), the neutrophil count result is reported as “suppressed increase”, the thioredoxin result is listed as “suppressed increase” and the “type IV collagen” value is “suppressed increase”.

For the molecule `CCCCc1nc(Cl)c(CO)n1Cc1ccc(-c2ccccc2-c2nn[nH]n2)cc1` [losartan], in the series on NASH patient (setting [8]), the ALT entry is “improvement”, the ferritin result was “improvement” and the “type IV collagen” value was “improvement”.

Regarding `CN(C)C(=N)N=C(N)N` [metformin, metformin hydrochloride], in series [1], the “plasma ALT” value is on record as “suppression of the increase”. Further, in the series with NASH patient (setting [9]), the lactic acid level entry is reported as “significant increase” and the “serum alanine aminotransferase (ALT) level” value is listed as “significant decrease”. The HOMA-IR entry in series [3] (metformin hydrochloride 80 mg/kg oral once a day) is “improved”. Moreover, in series [3], the “plasma ALT” value was “suppressed increase” and the “plasma FFA amount” value is recorded as “suppressed increase”.

With `CCCCC(=O)N(Cc1ccc(-c2ccccc2-c2nnn[nH]2)cc1)[C@H](C(=O)O)C(C)C` [valsartan], in series [1], the “plasma ALT” value is given as “suppression of the increase”.

These data come from patent US20110082119A1, “PROPHYLACTIC/AMELIORATING OR THERAPEUTIC AGENT FOR NON-ALCOHOLIC STEATOHEPATITIS” (priority 2008, published 2011).
